Test results published in patent US9757426B2, “Peptide additives for enhancing acceptance and ingestion of edibles by rodents and uses thereof” (priority 2013, dated 2017).
No end group written: not given here.

Experiments:
Format in all cases: in vivo
mice [1] = test: Concentration/response functions, preference for warfarin-containing food; conditions: both foods contain 0.025% warfarin, +/- SEM
Text: Concentration/response functions were studies for uroguanylin. […] A preference ratio of 0.5 indicates no preference.
Concentration/response functions were also studied for guanylin. […] A preference ratio of 0.5 indicates no preference.

C57BL/6J mice = test: Preference testing after uroguanylin exposure (B6 mice); conditions: mean ± s.e.m.
Text: Food preference testing—Food preference assays were modified from those used previously for testing the social transmission of food preference in rats and mice (Galef et al. 1983; Posadas-Andrews and Roper 1983; Valsecchi and Galef 1989; Crawley 2007; Ryan et al. 2008; Munger et al. 2010). In all experiments, subject mice were pair-housed for four days in standard cages with the food container placed on the cage floor. Mice were fed a crushed rodent diet (2018SX, Harlan) to habituate them to powdered food. The amount of food was restricted to 2 g/mouse/day to facilitate feeding during the food preference tests. […] All data were expressed as mean ±S.E.M. Differences were accepted as significant if p<0.05 (see below for statistical tests).
B6 mice were randomly assigned into one of three groups (n=8 each). On the test day, each mouse was moved to individual cages and presented with a petri dish containing a drop of saline (150 μl) with added flavor powder (2% cocoa or 1% cinnamon) with or without uroguanylin (0, 50 nM or 50 μM). After 1 hr exposure, mice were moved to clean cages. After 3 hrs, mice were presented with two food trays (3.5 cm petri dishes mounted to a weighted plastic stage), one of which contained cocoa-odored food (3.5 g) and the other cinnamon-odored food (3.5 g). Subject mice were allowed to feed for 1 hr, at which point the food trays were removed and weighed to calculate the amount of each food consumed. […] Significance between stimulus conditions was determined by one-way ANOVA.
The chemostimulus CS2, when paired with a food odor, is sufficient to increase the attractiveness of foods and to promote the acquisition of food preferences in mice (Bean et al. 1988; Munger et al. 2010). Whether uroguanylin could serve a similar role was tested. Individual observer mice were allowed to interact with a petri dish containing an odor (2% cocoa or 1% cinnamon) with or without uroguanylin (50 nM or 50 μM) in saline. Each mouse was subsequently presented with a choice of two odored chows (cocoa vs. cinnamon).

mice [2] = test: Maintenance over time of uroguanylin-dependent preferences (warfarin-containing foods, retests); conditions: 50 nM uroguanylin
Description: Mice form preferences to food and feeding sites when food odors are paired with the social cues uroguanylin. It was determined whether mice will maintain this preference and return to the learned food odor even after the food has been tainted with the commonly used rodenticide warfarin. […] A preference ratio of 0.5 indicates no preference. […] These same mice were retested one and four days after the initial day of testing. […] By contrast, there was no effect of the test day on the preference ratio.

[3] = 1 nM peptide + food odor in saline for 1 hr
[4] = 50 nM peptide + food odor in saline for 1 hr

| Substance | Preference ratio (PR = food with demonstrated odor (g) consumed/total food (g) consumed) (mice [1]; [3]) | Preference ratio (PR = food with demonstrated odor (g) consumed/total food (g) consumed) (mice [1]; [4]) | Amount of food consumed, Total food (C57BL/6J mice; Odor + UG (50 nM)) [g] | Amount of food consumed, w/demonstrated odor (C57BL/6J mice; Odor + UG (50 nM)) [g] | Amount of food consumed, w/novel odor (C57BL/6J mice; Odor + UG (50 nM)) [g] | Amount of food consumed, Total food (C57BL/6J mice; Odor + UG (50 μM)) [g] | Amount of food consumed, w/demonstrated odor (C57BL/6J mice; Odor + UG (50 μM)) [g] | Amount of food consumed, w/novel odor (C57BL/6J mice; Odor + UG (50 μM)) [g] | Preference ratio (PR) (mice [2]; initial day of testing, both foods contain 0.025% warfarin) | Preference ratio (PR) (mice [2]; retest Day 2, foods contain 0.025% warfarin) | Preference ratio (PR) (mice [2]; retest Day 5, foods contain 0.025% warfarin) |
| --- | --- | --- | --- | --- | --- | --- | --- | --- | --- | --- | --- |
| guanylin (PGTCEICAYAACTGC; ends and bridges not checked; cysteine pairing not given here; UniProt Q02747 101-115, looked up) [guanylin family peptide, naturally-occurring peptide hormone produced in the intestines] | 0.75 +/−0.04 | 0.72 +/−0.04 | – | – | – | – | – | – | – | – | – |
| uroguanylin (NDDCELCVNVACTGCL; ends and bridges not checked; cysteine pairing not given here; UniProt Q16661 97-112, looked up) [guanylin family peptide, naturally-occurring peptide hormone produced in the intestines; GC-D agonist] | 0.65 +/−0.05 | 0.76 +/−0.04 | 1.42 ± 0.19 | 1.08 ± 0.14 | 0.34 ± 0.08 | 1.50 ± 0.26 | 1.15 ± 0.14 | 0.35 ± 0.12 | 0.76+/−0.04 | 0.72 +/−0.06 | 0.74 +/−0.08 |
